Test results published in the supplement of paper PMC10307832.

Experiments:
Experiment in all cases: relative viability (nuclei count vs DMSO), 5 days (fraction); higher = more cells survive
Bicalutamide + Dasatinib = compound: CC(O)(CS(=O)(=O)c1ccc(F)cc1)C(=O)Nc1ccc(C#N)c(C(F)(F)F)c1 [Bicalutamide] + Cc1nc(Nc2ncc(C(=O)Nc3c(C)cccc3Cl)s2)cc(N2CCN(CCO)CC2)n1 [Dasatinib] (partner 0.075 µM)
Summary of the method: (§1)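 For relative viability, nuclei counts in treated wells were divided by those in vehicle wells. Lung cancer cell lines had been pin-tool dosed in 1536-well plates the day after seeding and cultured for 5 days, then fixed and stained in one step (final 0.05% Triton X-100, 1% formaldehyde, 1 ug/ml Hoechst) and imaged at 4×. Doses were one drug alone or a fixed anchor-drug dose plus five library-drug doses (not always all listed) in √10 steps, and values are duplicate-plate medians.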

[1] = compound: C(C(=O)C(=O)O)Br [Bromopyruvate] + CS(=O)(=O)CCNCc1ccc(-c2ccc3ncnc(Nc4ccc(OCc5cccc(F)c5)c(Cl)c4)c3c2)o1 [Lapatinib] (partner 2 µM)
Summary of the method: as §1

[2] = compound: C(C(=O)C(=O)O)Br [Bromopyruvate] + CC1(C)CCC(c2ccc(Cl)cc2)=C(CN2CCN(c3ccc(C(=O)NS(=O)(=O)c4ccc(N[C@H](CCN5CCOCC5)CSc5ccccc5)c(S(=O)(=O)C(F)(F)F)c4)cc3)CC2)C1 [Navitoclax] (partner 0.5 µM)
Summary of the method: as §1

[3] = compound: CC(O)(CS(=O)(=O)c1ccc(F)cc1)C(=O)Nc1ccc(C#N)c(C(F)(F)F)c1 [Bicalutamide] + CCNC(=O)c1noc(-c2cc(C(C)C)c(O)cc2O)c1-c1ccc(CN2CCOCC2)cc1 [Luminespib] (partner 0.01 µM)
Summary of the method: as §1

## NCI-H2170
Bicalutamide + Dasatinib; first compound 0.08 µM
  relative viability: 0.532
Bicalutamide + Dasatinib; first compound 0.253 µM
  relative viability: 0.497
Bicalutamide + Dasatinib; first compound 0.8 µM
  relative viability: 0.584
Bicalutamide + Dasatinib; first compound 2.53 µM
  relative viability: 0.563
[1]; first compound 1 µM
  relative viability: 0.25
[1]; first compound 3.162 µM
  relative viability: 0.284
[1]; first compound 10 µM
  relative viability: 0.277
[1]; first compound 31.62 µM
  relative viability: 0.246
[1]; first compound 100 µM
  relative viability: 0.293
[2]; first compound 1 µM
  relative viability: 0.549
[2]; first compound 3.162 µM
  relative viability: 0.533
[2]; first compound 10 µM
  relative viability: 0.577
[2]; first compound 31.62 µM
  relative viability: 0.541
[2]; first compound 100 µM
  relative viability: 0.57
[3]; first compound 0.08 µM
  relative viability: 0.689
[3]; first compound 0.253 µM
  relative viability: 0.527
[3]; first compound 0.8 µM
  relative viability: 0.588
[3]; first compound 2.53 µM
  relative viability: 0.591

## NCI-H520
Bicalutamide + Dasatinib; first compound 0.08 µM
  relative viability: 0.192
Bicalutamide + Dasatinib; first compound 0.253 µM
  relative viability: 0.195
Bicalutamide + Dasatinib; first compound 0.8 µM
  relative viability: 0.185
Bicalutamide + Dasatinib; first compound 2.53 µM
  relative viability: 0.137
[1]; first compound 1 µM
  relative viability: 0.846
[1]; first compound 3.162 µM
  relative viability: 0.966
[1]; first compound 10 µM
  relative viability: 0.98
[1]; first compound 31.62 µM
  relative viability: 0.766
[1]; first compound 100 µM
  relative viability: 0.739
[2]; first compound 1 µM
  relative viability: 1.05
[2]; first compound 3.162 µM
  relative viability: 1.08
[2]; first compound 10 µM
  relative viability: 1.21
[2]; first compound 31.62 µM
  relative viability: 1.18
[2]; first compound 100 µM
  relative viability: 1.03
[3]; first compound 0.08 µM
  relative viability: 0.232
[3]; first compound 0.253 µM
  relative viability: 0.22
[3]; first compound 0.8 µM
  relative viability: 0.274
[3]; first compound 2.53 µM
  relative viability: 0.205

## NCI-H727
Bicalutamide + Dasatinib; first compound 0.08 µM
  relative viability: 0.376
Bicalutamide + Dasatinib; first compound 0.8 µM
  relative viability: 0.383
Bicalutamide + Dasatinib; first compound 2.53 µM
  relative viability: 0.653
[1]; first compound 1 µM
  relative viability: 1.13
[1]; first compound 3.162 µM
  relative viability: 0.928
[1]; first compound 10 µM
  relative viability: 0.862
[1]; first compound 31.62 µM
  relative viability: 0.781
[1]; first compound 100 µM
  relative viability: 0.86
[2]; first compound 1 µM
  relative viability: 0.469
[2]; first compound 3.162 µM
  relative viability: 0.526
[2]; first compound 10 µM
  relative viability: 0.401
[2]; first compound 31.62 µM
  relative viability: 0.425
[2]; first compound 100 µM
  relative viability: 0.509
[3]; first compound 0.08 µM
  relative viability: 0.366
[3]; first compound 0.8 µM
  relative viability: 0.378
[3]; first compound 2.53 µM
  relative viability: 0.339

## HCC-15
Bicalutamide + Dasatinib; first compound 0.08 µM
  relative viability: 0.666
Bicalutamide + Dasatinib; first compound 0.253 µM
  relative viability: 0.568
Bicalutamide + Dasatinib; first compound 0.8 µM
  relative viability: 0.653
Bicalutamide + Dasatinib; first compound 2.53 µM
  relative viability: 0.609
[1]; first compound 1 µM
  relative viability: 0.868
[1]; first compound 3.162 µM
  relative viability: 0.873
[1]; first compound 10 µM
  relative viability: 0.849
[1]; first compound 31.62 µM
  relative viability: 0.856
[1]; first compound 100 µM
  relative viability: 0.844
[2]; first compound 1 µM
  relative viability: 0.697
[2]; first compound 3.162 µM
  relative viability: 0.723
[2]; first compound 10 µM
  relative viability: 0.759
[2]; first compound 31.62 µM
  relative viability: 0.765
[2]; first compound 100 µM
  relative viability: 0.657
[3]; first compound 0.08 µM
  relative viability: 0.445
[3]; first compound 0.253 µM
  relative viability: 0.294
[3]; first compound 0.8 µM
  relative viability: 0.57
[3]; first compound 2.53 µM
  relative viability: 0.62

## NCI-H460
Bicalutamide + Dasatinib; first compound 0.08 µM
  relative viability: 0.498
Bicalutamide + Dasatinib; first compound 0.253 µM
  relative viability: 0.44
Bicalutamide + Dasatinib; first compound 0.8 µM
  relative viability: 0.646
Bicalutamide + Dasatinib; first compound 2.53 µM
  relative viability: 0.483
[1]; first compound 1 µM
  relative viability: 0.967
[1]; first compound 3.162 µM
  relative viability: 0.881
[1]; first compound 10 µM
  relative viability: 1.8
[1]; first compound 31.62 µM
  relative viability: 1.01
[1]; first compound 100 µM
  relative viability: 0.967
[2]; first compound 1 µM
  relative viability: 1.11
[2]; first compound 3.162 µM
  relative viability: 1.17
[2]; first compound 10 µM
  relative viability: 1.58
[2]; first compound 31.62 µM
  relative viability: 1.1
[2]; first compound 100 µM
  relative viability: 1.16
[3]; first compound 0.08 µM
  relative viability: 0.0289
[3]; first compound 0.253 µM
  relative viability: 0.0405
[3]; first compound 0.8 µM
  relative viability: 0.0453
[3]; first compound 2.53 µM
  relative viability: 0.035

## EPLC-272H
Bicalutamide + Dasatinib; first compound 0.08 µM
  relative viability: 0.375
Bicalutamide + Dasatinib; first compound 0.253 µM
  relative viability: 0.336
Bicalutamide + Dasatinib; first compound 0.8 µM
  relative viability: 0.454
Bicalutamide + Dasatinib; first compound 2.53 µM
  relative viability: 0.321
[1]; first compound 1 µM
  relative viability: 1.02
[1]; first compound 3.162 µM
  relative viability: 1.06
[1]; first compound 10 µM
  relative viability: 0.839
[1]; first compound 31.62 µM
  relative viability: 0.916
[1]; first compound 100 µM
  relative viability: 1.05
[2]; first compound 1 µM
  relative viability: 1.15
[2]; first compound 3.162 µM
  relative viability: 1.22
[2]; first compound 10 µM
  relative viability: 1.01
[2]; first compound 31.62 µM
  relative viability: 1.2
[2]; first compound 100 µM
  relative viability: 1.34
[3]; first compound 0.08 µM
  relative viability: 0.178
[3]; first compound 0.253 µM
  relative viability: 0.293
[3]; first compound 0.8 µM
  relative viability: 1.17
[3]; first compound 2.53 µM
  relative viability: 0.154
